Measurements from patent US6372446B1, “Method of selectively determining a fungal biomass” (Mycometer ApS, priority 1997, dated 2002).

Experiments:
Test in all cases: Screening of fungi for enzyme activity with 4-methylumbelliferone-labelled substrates
Type in all cases: cell-based
[1] = tested on: Aureobasidium pullulans (QM 3092); conditions: substrate 10 μM, 25° C., pH 5; for Enzyme activity: amount of released 4-methylumbelliferone during 5 hours of incubation: Aureobasidium pulluians (QM 3092), vegetable juice medium; for Enzyme activity: amount of released 4-methylumbelliferone: Aureobasidium pullulans (QM 3092), mineral medium
[2] = tested on: Paecilomyces farinosus (AGM 5); conditions: substrate 10 μM, 25° C., pH 5; for Enzyme activity: amount of released 4-methylumbelliferone: mineral medium; for Enzyme activity: amount of released 4-methylumbelliferone during 5 hours of incubation: vegetable juice medium
[3] = tested on: Cladosporium herbarum (AGM 8); conditions: substrate 10 μM, 25° C., pH 5; for Enzyme activity: amount of released 4-methylumbelliferone: mineral medium; for Enzyme activity: amount of released 4-methylumbelliferone during 5 hours of incubation: vegetable juice medium
[4] = tested on: Penicillium commune (IBT 13713); conditions: substrate 10 μM, 25° C., pH 5; for Enzyme activity: amount of released 4-methylumbelliferone: mineral medium; for Enzyme activity: amount of released 4-methylumbelliferone during 5 hours of incubation: vegetable juice medium
[5] = tested on: Penicillium solitum (IBT 13771); conditions: substrate 10 μM, 25° C., pH 5; for Enzyme activity: amount of released 4-methylumbelliferone: mineral medium; for Enzyme activity: amount of released 4-methylumbelliferone during 5 hours of incubation: vegetable juice medium
[6] = tested on: Aspergillus oryzae (AGM 11); conditions: substrate 10 μM, 25° C., pH 5; for Enzyme activity: amount of released 4-methylumbelliferone: mineral medium; for Enzyme activity: amount of released 4-methylumbelliferone during 5 hours of incubation: vegetable juice medium
[7] = tested on: Mucor racemosus (AAS 310); conditions: substrate 10 μM, 25° C., pH 5; for Enzyme activity: amount of released 4-methylumbelliferone: mineral medium; for Enzyme activity: amount of released 4-methylumbelliferone during 5 hours of incubation: vegetable juice medium
[8] = tested on: Ascobolus crenulatus (AAS 1); conditions: substrate 10 μM, 25° C., pH 5; for Enzyme activity: amount of released 4-methylumbelliferone: mineral medium; for Enzyme activity: amount of released 4-methylumbelliferone during 5 hours of incubation: vegetable juice medium
[9] = tested on: Trametes versicolor (AGM 24); conditions: substrate 10 μM, 25° C., pH 5; for Enzyme activity: amount of released 4-methylumbelliferone: mineral medium; for Enzyme activity: amount of released 4-methylumbelliferone during 5 hours of incubation: vegetable juice medium
[10] = tested on: Rhizomucor pusillus (AAS 300); conditions: substrate 10 μM, 25° C., pH 5; for Enzyme activity: amount of released 4-methylumbelliferone: mineral medium; for Enzyme activity: amount of released 4-methylumbelliferone during 5 hours of incubation: vegetable juice medium
[11] = tested on: Schizophyllum commune (AGM 25); conditions: substrate 10 μM, 25° C., pH 5; for Enzyme activity: amount of released 4-methylumbelliferone: mineral medium; for Enzyme activity: amount of released 4-methylumbelliferone during 5 hours of incubation: vegetable juice medium
[12] = tested on: Sodaria fimicola (AAS 17); conditions: substrate 10 μM, 25° C., pH 5; for Enzyme activity: amount of released 4-methylumbelliferone: mineral medium; for Enzyme activity: amount of released 4-methylumbelliferone during 5 hours of incubation: vegetable juice medium
Eurotium sp. (AAS 36) = conditions: substrate 10 μM, 25° C., pH 5; for Enzyme activity: amount of released 4-methylumbelliferone: mineral medium; for Enzyme activity: amount of released 4-methylumbelliferone during 5 hours of incubation: vegetable juice medium
[13] = tested on: Aspergillus versicolor (IBT 13738); conditions: substrate 10 μM, 25° C., pH 5; for Enzyme activity: amount of released 4-methylumbelliferone: mineral medium; for Enzyme activity: amount of released 4-methylumbelliferone during 5 hours of incubation: vegetable juice medium

Row | Compound | Enzyme activity: amount of released 4-methylumbelliferone during 5 hours of incubation [1] | Enzyme activity: amount of released 4-methylumbelliferone [1] | Enzyme activity: amount of released 4-methylumbelliferone [2] | Enzyme activity: amount of released 4-methylumbelliferone during 5 hours of incubation [2] | Enzyme activity: amount of released 4-methylumbelliferone [3] | Enzyme activity: amount of released 4-methylumbelliferone during 5 hours of incubation [3] | Enzyme activity: amount of released 4-methylumbelliferone [4] | Enzyme activity: amount of released 4-methylumbelliferone during 5 hours of incubation [4] | Enzyme activity: amount of released 4-methylumbelliferone [5] | Enzyme activity: amount of released 4-methylumbelliferone during 5 hours of incubation [5] | Enzyme activity: amount of released 4-methylumbelliferone [6] | Enzyme activity: amount of released 4-methylumbelliferone during 5 hours of incubation [6] | Enzyme activity: amount of released 4-methylumbelliferone [7] | Enzyme activity: amount of released 4-methylumbelliferone during 5 hours of incubation [7] | Enzyme activity: amount of released 4-methylumbelliferone [8] | Enzyme activity: amount of released 4-methylumbelliferone during 5 hours of incubation [8] | Enzyme activity: amount of released 4-methylumbelliferone [9] | Enzyme activity: amount of released 4-methylumbelliferone during 5 hours of incubation [9] | Enzyme activity: amount of released 4-methylumbelliferone [10] | Enzyme activity: amount of released 4-methylumbelliferone during 5 hours of incubation [10] | other results
1 | Cc1cc(=O)oc2cc(O[C@@H]3O[C@H](CO)[C@@H](O[C@@H]4O[C@H](CO)[C@H](O)[C@H](O)[C@H]4O)[C@H](O)[C@H]3O)ccc12 [substrate 8, 4-methylumbelliferyl β-D-lactoside] | 0 µmol | 0 µmol | 0 µmol | 0 µmol | 0 µmol | 0 µmol | 0 µmol | 0 µmol | 0 µmol | 0 µmol | 0 µmol | * (0.4 ≦ * < 1) | 0 µmol | 0 µmol | 0 µmol | 0 µmol | 0 µmol | 0 µmol | 0 µmol | * (0.4 ≦ * < 1) | Enzyme activity: amount of released 4-methylumbelliferone [11]: 0 µmol; Enzyme activity: amount of released 4-methylumbelliferone during 5 hours of incubation [11]: ** (1 ≦ ** 2); Enzyme activity: amount of released 4-methylumbelliferone [12]: 0 µmol; Enzyme activity: amount of released 4-methylumbelliferone during 5 hours of incubation [12]: ** (1 ≦ ** 2); Enzyme activity: amount of released 4-methylumbelliferone (Eurotium sp. (AAS 36)): 0 µmol; Enzyme activity: amount of released 4-methylumbelliferone during 5 hours of incubation (Eurotium sp. (AAS 36)): 0 µmol; Enzyme activity: amount of released 4-methylumbelliferone [13]: 0 µmol; Enzyme activity: amount of released 4-methylumbelliferone during 5 hours of incubation [13]: 0 µmol
2 | Cc1cc(=O)oc2cc(O[C@@H]3OC[C@@H](O)[C@H](O)[C@H]3O)ccc12 [substrate 9, 4-methylumbelliferyl β-D-xyloside] | *** (2 ≦ ***) | 0 µmol | 0 µmol | 0 µmol | 0 µmol | 0 µmol | 0 µmol | * (0.4 ≦ * < 1) | 0 µmol | ** (1 ≦ ** 2) | 0 µmol | *** (2 ≦ ***) | 0 µmol | 0 µmol | 0 µmol | 0 µmol | 0 µmol | 0 µmol | 0 µmol | *** (2 ≦ ***) | Enzyme activity: amount of released 4-methylumbelliferone [11]: 0 µmol; Enzyme activity: amount of released 4-methylumbelliferone during 5 hours of incubation [11]: *** (2 ≦ ***); Enzyme activity: amount of released 4-methylumbelliferone [12]: 0 µmol; Enzyme activity: amount of released 4-methylumbelliferone during 5 hours of incubation [12]: 0 µmol; Enzyme activity: amount of released 4-methylumbelliferone (Eurotium sp. (AAS 36)): 0 µmol; Enzyme activity: amount of released 4-methylumbelliferone during 5 hours of incubation (Eurotium sp. (AAS 36)): 0 µmol; Enzyme activity: amount of released 4-methylumbelliferone [13]: 0 µmol; Enzyme activity: amount of released 4-methylumbelliferone during 5 hours of incubation [13]: *** (2 ≦ ***)
3 | Cc1cc(=O)oc2cc(O[C@H]3O[C@H](C)[C@H](O)[C@H](O)[C@H]3O)ccc12 [substrate 10, 4-methylumbelliferyl α-D-fucoside] | 0 µmol | * (0.4 ≦ * < 1) | 0 µmol | 0 µmol | 0 µmol | 0 µmol | 0 µmol | 0 µmol | 0 µmol | 0 µmol | 0 µmol | 0 µmol | 0 µmol | ** (1 ≦ ** 2) | 0 µmol | 0 µmol | 0 µmol | 0 µmol | 0 µmol | *** (2 ≦ ***) | Enzyme activity: amount of released 4-methylumbelliferone [11]: 0 µmol; Enzyme activity: amount of released 4-methylumbelliferone during 5 hours of incubation [11]: 0 µmol; Enzyme activity: amount of released 4-methylumbelliferone [12]: 0 µmol; Enzyme activity: amount of released 4-methylumbelliferone during 5 hours of incubation [12]: 0 µmol; Enzyme activity: amount of released 4-methylumbelliferone (Eurotium sp. (AAS 36)): 0 µmol; Enzyme activity: amount of released 4-methylumbelliferone during 5 hours of incubation (Eurotium sp. (AAS 36)): 0 µmol; Enzyme activity: amount of released 4-methylumbelliferone [13]: 0 µmol; Enzyme activity: amount of released 4-methylumbelliferone during 5 hours of incubation [13]: 0 µmol
4 | Cc1cc(=O)oc2cc(O[C@@H]3O[C@H](C)[C@H](O)[C@H](O)[C@H]3O)ccc12 [substrate 11, 4-methylumbelliferyl β-D-fucoside] | 0 µmol | 0 µmol | 0 µmol | 0 µmol | 0 µmol | 0 µmol | 0 µmol | 0 µmol | 0 µmol | 0 µmol | 0 µmol | 0 µmol | 0 µmol | 0 µmol | 0 µmol | 0 µmol | 0 µmol | 0 µmol | 0 µmol | 0 µmol | Enzyme activity: amount of released 4-methylumbelliferone [11]: 0 µmol; Enzyme activity: amount of released 4-methylumbelliferone during 5 hours of incubation [11]: 0 µmol; Enzyme activity: amount of released 4-methylumbelliferone [12]: 0 µmol; Enzyme activity: amount of released 4-methylumbelliferone during 5 hours of incubation [12]: 0 µmol; Enzyme activity: amount of released 4-methylumbelliferone (Eurotium sp. (AAS 36)): 0 µmol; Enzyme activity: amount of released 4-methylumbelliferone during 5 hours of incubation (Eurotium sp. (AAS 36)): 0 µmol; Enzyme activity: amount of released 4-methylumbelliferone [13]: 0 µmol; Enzyme activity: amount of released 4-methylumbelliferone during 5 hours of incubation [13]: 0 µmol
